Results from ChEMBL document CHEMBL1671696, “Deamplification of pfmdr1-containing amplicon on chromosome 5 in Plasmodium falciparum is associated with reduced resistance to artelinic acid in vitro” (Antimicrob Agents Chemother, 2010).
Converted amounts (≈) assume the structure as drawn.

Legend:
Plasmodium falciparum [1] = test: Ratio of IC50 for Plasmodium falciparum subclone 3C1 containing 3 copy number of pfmdr1-containing amplicon on chromosome 5 to IC50 for wild type Plasmodium falciparum W2; assay type: functional
Plasmodium falciparum [2] = test: Antimicrobial activity against Plasmodium falciparum subclone 3A8 containing 3 copy number of pfmdr1-containing amplicon on chromosome 5 assessed as growth inhibition by [3H]hypoxanthine incorporation assay; assay type: functional, organism-based
Plasmodium falciparum [3] = test: Ratio of IC90 for Plasmodium falciparum subclone 3C18 containing 3 copy number of pfmdr1-containing amplicon on chromosome 5 to IC90 for wild type Plasmodium falciparum W2; assay type: functional
Plasmodium falciparum [4] = test: Antimicrobial activity against Plasmodium falciparum subclone 3A7 containing 4 copy number of pfmdr1-containing amplicon on chromosome 5 assessed as growth inhibition by [3H]hypoxanthine incorporation assay; assay type: functional, organism-based
Plasmodium falciparum [5] = test: Ratio of IC50 for Plasmodium falciparum subclone 3C20 containing 2 copy number of pfmdr1-containing amplicon on chromosome 5 to IC50 for wild type Plasmodium falciparum W2; assay type: functional
Plasmodium falciparum [6] = test: Ratio of IC90 for Plasmodium falciparum subclone 3A7 containing 4 copy number of pfmdr1-containing amplicon on chromosome 5 to IC90 for wild type Plasmodium falciparum W2; assay type: functional
Plasmodium falciparum [7] = test: Ratio of IC90 for Plasmodium falciparum subclone 3A8 containing 3 copy number of pfmdr1-containing amplicon on chromosome 5 to IC90 for wild type Plasmodium falciparum W2; assay type: functional
Plasmodium falciparum [8] = test: Ratio of IC50 for Plasmodium falciparum subclone 3C18 containing 3 copy number of pfmdr1-containing amplicon on chromosome 5 to IC50 for wild type Plasmodium falciparum W2; assay type: functional
Plasmodium falciparum [9] = test: Ratio of IC50 for Plasmodium falciparum subclone 3A3 containing 1 copy number of pfmdr1-containing amplicon on chromosome 5 to IC50 for wild type Plasmodium falciparum W2; assay type: functional
Plasmodium falciparum [10] = test: Ratio of IC90 for Plasmodium falciparum subclone 3A17 containing 2 copy number of pfmdr1-containing amplicon on chromosome 5 to IC90 for wild type Plasmodium falciparum W2; assay type: functional
Plasmodium falciparum [11] = test: Ratio of IC90 for Plasmodium falciparum subclone 3C10 containing 2 copy number of pfmdr1-containing amplicon on chromosome 5 to IC90 for wild type Plasmodium falciparum W2; assay type: functional
Plasmodium falciparum [12] = test: Ratio of IC90 for Plasmodium falciparum subclone 3C1 containing 3 copy number of pfmdr1-containing amplicon on chromosome 5 to IC90 for wild type Plasmodium falciparum W2; assay type: functional
Plasmodium falciparum [13] = test: Ratio of IC50 for Plasmodium falciparum subclone 3A1 containing 1 copy number of pfmdr1-containing amplicon on chromosome 5 to IC50 for wild type Plasmodium falciparum W2; assay type: functional
Plasmodium falciparum [14] = test: Ratio of IC50 for Plasmodium falciparum subclone 3A8 containing 3 copy number of pfmdr1-containing amplicon on chromosome 5 to IC50 for wild type Plasmodium falciparum W2; assay type: functional
Plasmodium falciparum [15] = test: Ratio of IC50 for Plasmodium falciparum clone W2AL80 containing 3 copy number of pfmdr1-containing amplicon on chromosome 5 to IC50 for wild type Plasmodium falciparum W2; assay type: functional
Plasmodium falciparum [16] = test: Ratio of IC90 for Plasmodium falciparum subclone 3C20 containing 2 copy number of pfmdr1-containing amplicon on chromosome 5 to IC90 for wild type Plasmodium falciparum W2; assay type: functional
Plasmodium falciparum [17] = test: Antimicrobial activity against Plasmodium falciparum subclone 3A17 containing 2 copy number of pfmdr1-containing amplicon on chromosome 5 assessed as growth inhibition by [3H]hypoxanthine incorporation assay; assay type: functional, organism-based
Plasmodium falciparum [18] = test: Antimicrobial activity against Plasmodium falciparum subclone 3C10 containing 2 copy number of pfmdr1-containing amplicon on chromosome 5 assessed as growth inhibition by [3H]hypoxanthine incorporation assay; assay type: functional, organism-based
Plasmodium falciparum [19] = test: Antimicrobial activity against Plasmodium falciparum subclone 3C18 containing 3 copy number of pfmdr1-containing amplicon on chromosome 5 assessed as growth inhibition by [3H]hypoxanthine incorporation assay; assay type: functional, organism-based
Plasmodium falciparum [20] = test: Antimicrobial activity against Plasmodium falciparum subclone 3C20 containing 2 copy number of pfmdr1-containing amplicon on chromosome 5 assessed as growth inhibition by [3H]hypoxanthine incorporation assay; assay type: functional, organism-based
Plasmodium falciparum [21] = test: Antimicrobial activity against drug pre-treated Plasmodium falciparum clone W2AL80 containing 3 copy number of pfmdr1-containing amplicon on chromosome 5 assessed as growth inhibition by [3H]hypoxanthine incorporation assay; assay type: functional, organism-based
Plasmodium falciparum [22] = test: Ratio of IC50 for Plasmodium falciparum subclone 3C10 containing 2 copy number of pfmdr1-containing amplicon on chromosome 5 to IC50 for wild type Plasmodium falciparum W2; assay type: functional
Plasmodium falciparum [23] = test: Ratio of IC50 for Plasmodium falciparum subclone 3A17 containing 2 copy number of pfmdr1-containing amplicon on chromosome 5 to IC50 for wild type Plasmodium falciparum W2; assay type: functional
Plasmodium falciparum [24] = test: Ratio of IC50 for Plasmodium falciparum subclone 3A12 containing 2 copy number of pfmdr1-containing amplicon on chromosome 5 to IC50 for wild type Plasmodium falciparum W2; assay type: functional
Plasmodium falciparum [25] = test: Ratio of IC90 for Plasmodium falciparum subclone 3A26 containing 3 copy number of pfmdr1-containing amplicon on chromosome 5 to IC90 for wild type Plasmodium falciparum W2; assay type: functional
Plasmodium falciparum [26] = test: Antimicrobial activity against Plasmodium falciparum subclone 3A1 containing 1 copy number of pfmdr1-containing amplicon on chromosome 5 assessed as growth inhibition by [3H]hypoxanthine incorporation assay; assay type: functional, organism-based
Plasmodium falciparum [27] = test: Ratio of IC50 for Plasmodium falciparum subclone 3A7 containing 4 copy number of pfmdr1-containing amplicon on chromosome 5 to IC50 for wild type Plasmodium falciparum W2; assay type: functional
Plasmodium falciparum [28] = test: Ratio of IC90 for Plasmodium falciparum subclone 3A3 containing 1 copy number of pfmdr1-containing amplicon on chromosome 5 to IC90 for wild type Plasmodium falciparum W2; assay type: functional
Plasmodium falciparum [29] = test: Antimicrobial activity against Plasmodium falciparum subclone 3A26 containing 3 copy number of pfmdr1-containing amplicon on chromosome 5 assessed as growth inhibition by [3H]hypoxanthine incorporation assay; assay type: functional, organism-based
Plasmodium falciparum [30] = test: Antimicrobial activity against Plasmodium falciparum subclone 3C1 containing 3 copy number of pfmdr1-containing amplicon on chromosome 5 assessed as growth inhibition by [3H]hypoxanthine incorporation assay; assay type: functional, organism-based
Plasmodium falciparum [31] = test: Ratio of IC50 for Plasmodium falciparum subclone 3A26 containing 3 copy number of pfmdr1-containing amplicon on chromosome 5 to IC50 for wild type Plasmodium falciparum W2; assay type: functional
Plasmodium falciparum [32] = test: Antimicrobial activity against Plasmodium falciparum subclone 3A12 containing 2 copy number of pfmdr1-containing amplicon on chromosome 5 assessed as growth inhibition by [3H]hypoxanthine incorporation assay; assay type: functional, organism-based
Plasmodium falciparum [33] = test: Ratio of IC90 for Plasmodium falciparum subclone 3A12 containing 2 copy number of pfmdr1-containing amplicon on chromosome 5 to IC90 for wild type Plasmodium falciparum W2; assay type: functional
Plasmodium falciparum [34] = test: Antimicrobial activity against Plasmodium falciparum subclone 3A3 containing 1 copy number of pfmdr1-containing amplicon on chromosome 5 assessed as growth inhibition by [3H]hypoxanthine incorporation assay; assay type: functional, organism-based
Plasmodium falciparum [35] = test: Ratio of IC90 for Plasmodium falciparum subclone 3A1 containing 1 copy number of pfmdr1-containing amplicon on chromosome 5 to IC90 for wild type Plasmodium falciparum W2; assay type: functional
Plasmodium falciparum [36] = test: Antimicrobial activity against compound-sensitive Plasmodium falciparum clone W2 assessed as growth inhibition by [3H]hypoxanthine incorporation assay; assay type: functional, organism-based
Plasmodium falciparum [37] = test: Ratio of IC90 for Plasmodium falciparum clone W2AL80 containing 3 copy number of pfmdr1-containing amplicon on chromosome 5 to IC90 for wild type Plasmodium falciparum W2; assay type: functional

`OC(c1cc(C(F)(F)F)nc2c(C(F)(F)F)cccc12)C1CCCCN1` (stereo unspecified) [MEFLOQUINE] was tested, and the “Ratio IC50” value (Plasmodium falciparum [1]) was 3.1, the IC90 (Plasmodium falciparum [2]) was 0.0756 µg/mL (≈ 0.2 µM) and the Ratio (Plasmodium falciparum [3]) was 7. The IC90 (Plasmodium falciparum [4]) was 0.0778 µg/mL (≈ 0.206 µM), the “Ratio IC50” value (Plasmodium falciparum [5]) was 2.2 and the Ratio (Plasmodium falciparum [6]) was 5.4. The Ratio (Plasmodium falciparum [7]) was 5.2, the “Ratio IC50” value (Plasmodium falciparum [8]) was 2.9 and the “Ratio IC50” value (Plasmodium falciparum [9]) was 1.7. For the same molecule, the Ratio (Plasmodium falciparum [10]) was 6.6, the Ratio (Plasmodium falciparum [11]) was 5.9 and the Ratio (Plasmodium falciparum [12]) was 5.9. The “Ratio IC50” value (Plasmodium falciparum [13]) was 1, the “Ratio IC50” value (Plasmodium falciparum [14]) was 2.6 and the “Ratio IC50” value (Plasmodium falciparum [15]) was 2.3. It also gave a Ratio (Plasmodium falciparum [16]) of 5.7, an IC50 (Plasmodium falciparum [17]) of 0.019 µg/mL (≈ 0.0501 µM) and an IC90 (Plasmodium falciparum [17]) of 0.0954 µg/mL (≈ 0.252 µM). The IC90 (Plasmodium falciparum [18]) was 0.0821 µg/mL (≈ 0.217 µM), the IC90 (Plasmodium falciparum [19]) was 0.102 µg/mL (≈ 0.269 µM) and the IC90 (Plasmodium falciparum [20]) was 0.0833 µg/mL (≈ 0.22 µM). The IC90 (Plasmodium falciparum [21]) was 0.104 µg/mL (≈ 0.274 µM), the “Ratio IC50” value (Plasmodium falciparum [22]) was 3 and the “Ratio IC50” value (Plasmodium falciparum [23]) was 2.6. The “Ratio IC50” value (Plasmodium falciparum [24]) was 1.7, the Ratio (Plasmodium falciparum [25]) was 5.2 and the IC50 (Plasmodium falciparum [26]) was 0.00738 µg/mL (≈ 0.0195 µM). The IC90 (Plasmodium falciparum [26]) was 0.0261 µg/mL (≈ 0.069 µM), the “Ratio IC50” value (Plasmodium falciparum [27]) was 3.8 and the Ratio (Plasmodium falciparum [28]) was 2.8. The IC50 (Plasmodium falciparum [29]) was 0.0191 µg/mL (≈ 0.0504 µM), the IC90 (Plasmodium falciparum [29]) was 0.075 µg/mL (≈ 0.198 µM) and the IC90 (Plasmodium falciparum [30]) was 0.0849 µg/mL (≈ 0.224 µM). The “Ratio IC50” value (Plasmodium falciparum [31]) was 2.5, the IC90 (Plasmodium falciparum [32]) was 0.0519 µg/mL (≈ 0.137 µM) and the Ratio (Plasmodium falciparum [33]) was 3.6. For the same molecule, the IC90 (Plasmodium falciparum [34]) was 0.0406 µg/mL (≈ 0.107 µM), the Ratio (Plasmodium falciparum [35]) was 1.8 and the IC50 (Plasmodium falciparum [36]) was 7.72 ng/mL (≈ 0.0204 µM). It also gave an IC90 (Plasmodium falciparum [36]) of 14.5 ng/mL (≈ 0.0383 µM) and a Ratio (Plasmodium falciparum [37]) of 7.2.

With `C[C@@H]1[C@H](OCc2ccc(C(=O)O)cc2)O[C@@H]2O[C@@]3(C)CC[C@@H]4[C@@H](C)CC[C@@H]1[C@]24OO3` [ARTELINIC ACID] the “Ratio IC50” value (Plasmodium falciparum [1]) was 18.9, the IC50 (Plasmodium falciparum [2]) was 0.0629 µg/mL (≈ 0.15 µM) and the IC90 (Plasmodium falciparum [2]) was 0.12 µg/mL (≈ 0.286 µM). The Ratio (Plasmodium falciparum [3]) was 20.4, the IC50 (Plasmodium falciparum [4]) was 0.0467 µg/mL (≈ 0.112 µM) and the IC90 (Plasmodium falciparum [4]) was 0.0924 µg/mL (≈ 0.221 µM). The “Ratio IC50” value (Plasmodium falciparum [5]) was 11, the Ratio (Plasmodium falciparum [6]) was 17 and the Ratio (Plasmodium falciparum [7]) was 22. The “Ratio IC50” value (Plasmodium falciparum [8]) was 21.1, the “Ratio IC50” value (Plasmodium falciparum [9]) was 8.8 and the Ratio (Plasmodium falciparum [10]) was 15.9. The Ratio (Plasmodium falciparum [11]) was 17.2, the Ratio (Plasmodium falciparum [12]) was 18.5 and the “Ratio IC50” value (Plasmodium falciparum [13]) was 7.6. For the same molecule, the “Ratio IC50” value (Plasmodium falciparum [14]) was 16.3, the “Ratio IC50” value (Plasmodium falciparum [15]) was 12.7 and the Ratio (Plasmodium falciparum [16]) was 14.7. For the same molecule, the IC50 (Plasmodium falciparum [17]) was 0.0481 µg/mL (≈ 0.115 µM), the IC90 (Plasmodium falciparum [17]) was 0.0867 µg/mL (≈ 0.207 µM) and the IC50 (Plasmodium falciparum [18]) was 0.0395 µg/mL (≈ 0.0945 µM). It also gave an IC90 (Plasmodium falciparum [18]) of 0.0936 µg/mL (≈ 0.224 µM), an IC50 (Plasmodium falciparum [19]) of 0.0814 µg/mL (≈ 0.194 µM) and an IC90 (Plasmodium falciparum [19]) of 0.111 µg/mL (≈ 0.265 µM). It also gave an IC50 (Plasmodium falciparum [20]) of 0.0424 µg/mL (≈ 0.101 µM), an IC90 (Plasmodium falciparum [20]) of 0.08 µg/mL (≈ 0.191 µM) and an IC50 (Plasmodium falciparum [21]) of 0.0488 µg/mL (≈ 0.117 µM). For the same molecule, the IC90 (Plasmodium falciparum [21]) was 0.123 µg/mL (≈ 0.295 µM), the “Ratio IC50” value (Plasmodium falciparum [22]) was 10.2 and the “Ratio IC50” value (Plasmodium falciparum [23]) was 12.5. The “Ratio IC50” value (Plasmodium falciparum [24]) was 11, the Ratio (Plasmodium falciparum [25]) was 20.7 and the IC50 (Plasmodium falciparum [26]) was 0.0294 µg/mL (≈ 0.0703 µM). For the same molecule, the IC90 (Plasmodium falciparum [26]) was 0.0531 µg/mL (≈ 0.127 µM), the “Ratio IC50” value (Plasmodium falciparum [27]) was 12.1 and the Ratio (Plasmodium falciparum [28]) was 9.3. It also gave an IC50 (Plasmodium falciparum [29]) of 0.052 µg/mL (≈ 0.124 µM), an IC90 (Plasmodium falciparum [29]) of 0.113 µg/mL (≈ 0.269 µM) and an IC50 (Plasmodium falciparum [30]) of 0.0731 µg/mL (≈ 0.175 µM). For the same molecule, the IC90 (Plasmodium falciparum [30]) was 0.1 µg/mL (≈ 0.24 µM), the “Ratio IC50” value (Plasmodium falciparum [31]) was 13.5 and the IC50 (Plasmodium falciparum [32]) was 0.0423 µg/mL (≈ 0.101 µM). The IC90 (Plasmodium falciparum [32]) was 0.114 µg/mL (≈ 0.271 µM), the Ratio (Plasmodium falciparum [33]) was 20.9 and the IC50 (Plasmodium falciparum [34]) was 0.034 µg/mL (≈ 0.0813 µM). It also gave an IC90 (Plasmodium falciparum [34]) of 0.0504 µg/mL (≈ 0.12 µM), a Ratio (Plasmodium falciparum [35]) of 9.8 and an IC50 (Plasmodium falciparum [36]) of 3.86 ng/mL (≈ 0.00922 µM). The IC90 (Plasmodium falciparum [36]) was 5.44 ng/mL (≈ 0.013 µM) and the Ratio (Plasmodium falciparum [37]) was 22.7.
